Reference: patent US20090311246A1, “Method of Enhancing Remyelination in Demyelinating Diseases of the Central Nervous System” (priority 2008, published 2009)
“Also recorded” adds a separate entry of the source.

Key:
[1] = tested on: SFV-infected TCR γδ-KO and WT mice; assay: Clinical scores of SFV-infected, E2 137-151 immunized TCR γδ-KO and WT mice; type: in vivo; settings: 0.5 mg/injection (25 mg/kg) sc in IFA, scale 0-VI
Method: FIG. 5 Comparison of Clinical Scores (±SEM) of SFV-infected E2 137-151 peptide-immunized, and non-immunized TCR γδ-KO and WT mice, on different days post infection. Data shown is the average of two experiments with a total of 15 WT, 15 KO mice, and 10 immunized KO mice (only 5-10 KO mice could be obtained at each time point). SFV-infected KO mice were immunized subcutaneously with E2 137-151 (0.5 mg/injection or 25 mg/kg, based on the average weight of 20 g/mouse) in IFA, one day after SFV-infection. Additional inoculations of E2 137-151/IFA were performed on days 5, 15, and 20. Mice were sacrificed on days 7, 15, 21, and 35 pi. Clinical scores of sacrificed and dead animals have been considered in average calculation until the end of experiments on day 35. […] Data from E2-137-immunized WT mice is not shown (p=NS).
Method—Five-week old C57B16 (B6) WT and KO mice (Jackson Laboratories, Bar Harbor, Mass.) were infected with SFV, and KO mice were immunized subcutaneously with E2-137-151 (0.5 mg/injection or 25 mg/kg, based on the average weight of 20 g/mouse) in IFA, one day after SFV-infection. Additional inoculations of E2 137-151/IFA were performed on days 5 and 15 for KO mice only. Animals were observed daily for clinical manifestations of disease and were scored on a scale of 0-VI. 0=no abnormality; I-mild hind limb weakness (some difficulty righting themselves when turned on their back); II=moderate hind limb weakness, sometimes associated with floppy tail; III=weakness of hind limbs accompanied by some forelimb weakness, sometimes more marked on one limb or one side, but not complete paralysis; IV=hind limb paresis accompanied by mild forelimb weakness; V=paralysis of hind limbs, associated with moderate forelimb weakness; and VI=quadriplegia, moribund.

[2] = tested on: B6 mice with EAE; assay: Inflammation, demyelination and remyelination in lumbar spinal cord of E2 137-151 treated EAE mice; type: in vivo
Description: All figures come from one micron epoxy sections taken from brain tissues, fixed in 2.5% glutaraldehyde/1% osmium tetroxide, embedded in epoxy resin, stained with toluidine blue and photographed by light microscopy.
In order to be able to detect the de- and remyelination accurately, at the end of the experiment, mice will be sacrificed by an overdose of sodium pentobarbital and perfused by intracardiac puncture with Trumps fixative, containing 4% paraformaldehyde and 1% glutaraldehyde. Brains and spinal cords are removed and post fixed in osmium textroxide. Each brain is sectioned coronally into three pieces by cuts through infandibulum and optic chiasm. Spinal cord tissues will be also harvested and processed. Every third block (10-12 blocks per spinal cord, cervical to lumbar range) will be embedded, along with brain sections, in Araldite plastic. The embedded tissues will be cross-sectioned at 1 μm thickness, and the slides stained with toluidine blue or 4% paraphenylenediamine to highlight the myelin sheets. We have studied the one-micron thin sections of the brains of SFV-infected WT and KO on days of 21-42 postinfection.
In order to be able to analyze de- and remyelination accurately in untreated and E2 137-151 treated LAE mice, one micron sections of lumbar spinal cords of all mice, were analyzed as described above for SFV-infected mice, on different days post immunization. […] Widespread Wallerian degeneration evidenced by dilated and collapsed myelin sheaths, some containing axonal remnants, was also observed. Cellular infiltration was present within the meningeal space as well. […] Spinal cord white matter of normal control mice is also shown for comparison (FIG. 8C)

[3] = tested on: B6 mice with EAE; assay: Clinical scores of E2 137-151 peptide-treated mice with MOG 35-55 induced EAE; type: in vivo; settings: for Disease severity, treatment from D12 post-EAE induction, compared with untreated EAE mice: 0.5 mg/injection sc in IFA on D12, 17, 22, peak D19
Method: FIG. 6 Comparison of Average Clinical Scores (±SEM) of E2 137-151 peptide-treated, and untreated B6 mice with EAE, on different days post treatment. Data shown is the average of three experiments, total numbers of mice were 21 EAE and 22 treated EAE mice. All mice were immunized subcutaneously with myelin oligodendrocyte glycoprotein (MOG) peptide 35-55 in CFA, on D0. Treated EAE mice received subcutaneous injection of E2-137 peptide (0.5 mg/injection or 25 mg/kg, based on the average weight of 20 g/mouse) in IFA, on day 12 post EAE induction. Additional inoculations of E2-137 peptide/IFA were performed twice more with 5-day intervals. Following the injection, animals were observed daily for clinical manifestations of disease and were scored on a scale of 0-VI, as above. Clinical scores of sacrificed and dead animals have been considered in average calculation till the end of the experiments on day 39.
Method—To induce EAE, fourteen 7-8 wk old B6 mice (Jackson Laboratories, Bar Harbor, Mass.) were each inoculated, subcutaneously, with […] MOG 35-55 in Complete Freund's Adjuvant (CFA) or CFA only (as control), followed by two injections of 100 ng of pertusis toxin, 48 hours apart (9, 73). Eight mice in EAE-induced group were immunized subcutaneously with E2-137-151 (0.5 mg/injection or 25 mg/kg, based on the average weight of 20 g/mouse) in IFA, one day after MOG inoculation. One additional inoculation of E2 137-151/IFA was performed 5 days later. Animals were observed daily for clinical manifestations of disease and were scored on a scale of 0-VI. 0=no abnormality; I=mild hind limb weakness (some difficulty righting themselves when turned on their back); II=moderate hind limb weakness, sometimes associated with floppy tail; III=weakness of hind limbs accompanied by some forelimb weakness, sometimes more marked on one limb or one side, but not complete paralysis; IV=hind limb paresis accompanied by mild forelimb weakness; V=paralysis of hind limbs, associated with moderate forelimb weakness; and VI-quadriplegia, moribund.
Result—Mice were immunized with MOG 35-55 in CFA, to induce EAE as described above. In the first two experiments, mice were divided into two groups, untreated, and treated after EAE induction. The treated EAE group received E2-137-151 peptide in IFA, subcutaneously on D5 post-EAE induction, before the signs of clinical disease were apparent.
Next, three experiments were performed with a total number of 21 RAE and 22 late treated EAE mice. […] EAE mice were further treated with E2-137-151 peptide on days 17 and 22 post-EAE induction. […] Peak of the disease in both RAE and D12 treated EAR mice were on D19 pi.

[4] = tested on: B6 mice; settings: unpublished data

CC[C@H](C)[C@H](NC(=O)[C@H](CCC(=O)O)NC(=O)[C@H](CCCCN)NC(=O)CNC(=O)[C@H](Cc1ccc(O)cc1)NC(=O)[C@H](Cc1c[nH]cn1)NC(=O)[C@@H]1CCCN1C(=O)[C@H](CCCNC(=N)N)NC(=O)[C@@H](NC(=O)[C@@H](NC(=O)[C@H](Cc1ccccc1)NC(=O)[C@H](CCCCN)NC(=O)[C@H](CCC(=O)O)NC(=O)[C@H](CCCNC(=N)N)NC(=O)CN)[C@@H](C)O)[C@@H](C)CC)C(=O)O [E2 137-151]
Average clinical score / severity of disease, immunized KO compared with non-immunized KO mice ([1]; listed as E2 137-151 peptide, 25 mg/kg): significantly suppressed | Average clinical score / severity of disease, immunized KO compared with non-immunized KO mice ([1]; listed as E2-137, 25 mg/kg): nonimmunized <E2-137 immunized KO mice | Average clinical score / severity of disease, immunized KO compared with non-immunized KO mice ([1]; listed as E2-137-151, 25 mg/kg): decreased significantly | Wallerian degeneration in lumbar spinal cord ([2]; day 33): No wallerian degeneration | Inflammation in lumbar spinal cord ([2]; day 33 pi): little to no inflammation; also recorded: No wallerian degeneration and inflammation is present | Remyelination in spinal cord ([2]; day 33 pi): some remyelinating fibers; also recorded: some fibers display remyelination | Remyelination in spinal cord ([2]; day 33 pi, listed as E2 137-151 peptide): induced remyelination | Disease severity, treatment from D12 post-EAE induction, compared with untreated EAE mice [3]: significantly less severe disease on peak day | Disease severity, treatment from D12 post-EAE induction, compared with untreated EAE mice ([3]; listed as E2 137-151 peptide): significantly suppressed the clinical disease; also recorded: improved clinical EAE | Disease severity, treatment from D12 post-EAE induction, compared with untreated EAE mice ([3]; listed as E2-137 peptide): Average disease severity in EAE mice was significantly higher than treated EAE mice | Clinical disease score at the peak of the disease on D19 ([3]; 19 treated EAE mice (of 22), scale 0-VI): < 1.5 | Clinical signs of EAE, treatment on D5 post-EAE induction ([3]; E2-137-151 peptide in IFA sc before clinical signs): absence of clinical signs of EAE | Histopathology after inoculation with the peptide [4]: did not cause histopathology
